Laboratory results taken from US10329304B2, “Compounds and methods for inhibition of hedgehog signaling and phosphodiesterase” (Vanderbilt University, priority 2014, dated 2019).
pIC50: −log10 of the molar value. Where “and” joins values, the source holds several entries; their conditions need not be identical. Identical values can stand only once. Entries after “also recorded” stand apart in the source; their conditions may differ.

Key:
panel of 442 kinases = experiment: Kinase profiling assays (DiscoverRx, phage display model); type: binding
Experimental: (§1) Profiling assays were not performed in-house. Compounds were shipped to the following companies for possible target identification: Kinase profiling assays were performed by DiscoverRx (San Diego, Calif.) using a phage display model; GPCR profiling assays were performed by Millipore (St. Louis, Mo.) using in cells expressing Gα15, a promiscuous G protein that enhances GPCR coupling to downstream Ca^2+ signaling pathways; phosphatase profiling assay was performed by Millipore (Dundee, UK).

panel of 158 GPCRs = experiment: Millipore-GPCR Panel (cells expressing Gα15, Ca2+ signaling); type: cell-based
Experimental: as §1

panel of 21 phosphatases = experiment: Phosphatase profiling assay (Millipore); type: biochemical, human
Experimental: as §1

PDE4 isoforms = experiment: In vitro PDE dose-response assays (BPS Biosciences); type: biochemical; settings: isoforms of PDE4 A-D; read-out: IC50 range over PDE4 isoforms
Experimental: In vitro PDE profiling and dose-response assays were performed by BPS Biosciences (San Diego, Calif.). Kinetic Mechanism of inhibition studies were conducted by Millipore (St. Louis, Mo.). In brief, the PDE assay measures fluorescent polarization of FAM-AMP as FAM-cAMP is converted to FAM-AMP by PDE), the binding agent.
A series of dilutions of the test compound were prepared with 10% DMSO in assay buffer and 5 μl of the dilution was added to a 50 μl reaction so that the final concentration of DMSO is 1% in all of reactions. All of the PDE enzymatic reactions were conducted in duplicate at room temperature for 60 minutes in a 50 μl mixture containing PDE assay buffer (10 mM Tris-HCl, pH7.4, 10 mM MaCl2, 0.05% Tween 20), 100 nM FAM-cAMP, a PDE enzyme and a test compound.
After the enzymatic reaction, 100 μl of a binding solution (1:100 dilution of the binding agent, which contains the nano beads that recognize FAM-AMP, with the binding agent diluent) was added to each reaction and the reaction was performed at room temperature for 60 minutes. Fluorescence intensity was measured at an excitation of 485 nm and an emission of 528 nm using a Tecan Infinite M1000 microplate reader. Assays done by Millipore were conducted similarly with changes noted below: […]

PDE10A2 = biological target: T1, PDE10A2 (Homo sapiens, UniProt Q9Y233); experiment: In vitro PDE assay; type: biochemical
T1 construct: purchased BPS Biosciences (San Diego, Calif.)
Procedure, shortened: (§2)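 Recombinant human PDE incubated 60 min at room temperature in duplicate with 100 nM FAM-cAMP in 10 mM Tris-HCl pH 7.4, 10 mM MgCl2, 0.05% Tween 20, 1% DMSO. FAM-AMP product captured by bead binding agent for 60 min, then fluorescence read at 485/528 nm.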

PDE11A4 = biological target: T2, PDE11A4 (Homo sapiens, UniProt Q9HCR9); experiment: In vitro PDE assay; type: biochemical
T2 construct: purchased BPS Biosciences (San Diego, Calif.)
Procedure, shortened: as §2

PDE1A1 = biological target: T3, PDE1A1 (Homo sapiens, UniProt P54750); experiment: In vitro PDE assay; type: biochemical
T3 construct: purchased BPS Biosciences (San Diego, Calif.)
T3 sequence (P54750 1-529 isoform P54750-6): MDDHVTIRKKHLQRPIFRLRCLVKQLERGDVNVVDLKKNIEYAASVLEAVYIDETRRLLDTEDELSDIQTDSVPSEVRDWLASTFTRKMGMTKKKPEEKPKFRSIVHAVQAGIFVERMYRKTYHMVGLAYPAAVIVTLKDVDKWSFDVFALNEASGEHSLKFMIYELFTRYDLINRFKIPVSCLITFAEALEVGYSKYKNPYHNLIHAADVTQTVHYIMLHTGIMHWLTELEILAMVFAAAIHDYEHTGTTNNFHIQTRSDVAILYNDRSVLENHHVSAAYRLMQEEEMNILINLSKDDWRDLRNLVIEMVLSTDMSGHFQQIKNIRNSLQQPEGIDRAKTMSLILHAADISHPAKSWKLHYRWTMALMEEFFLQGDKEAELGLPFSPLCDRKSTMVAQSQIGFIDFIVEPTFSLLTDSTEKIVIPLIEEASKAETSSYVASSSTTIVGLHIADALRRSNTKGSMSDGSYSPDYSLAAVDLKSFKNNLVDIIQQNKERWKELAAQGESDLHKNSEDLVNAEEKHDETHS
Procedure, shortened: as §2

PDE2A = biological target: T4, PDE2A (Homo sapiens, UniProt O00408); experiment: In vitro PDE assay; type: biochemical
T4 construct: purchased BPS Biosciences (San Diego, Calif.)
Procedure, shortened: as §2

PDE3A = biological target: T5, PDE3A (Homo sapiens, UniProt Q14432); experiment: In vitro PDE assay; type: biochemical
T5 construct: purchased BPS Biosciences (San Diego, Calif.)
Procedure, shortened: as §2

PDE5A1 = biological target: T6, PDE5A1 (Homo sapiens, UniProt O76074); experiment: In vitro PDE assay; type: biochemical
T6 construct: purchased BPS Biosciences (San Diego, Calif.)
Procedure, shortened: as §2

PDE6C = biological target: T7, PDE6C (Homo sapiens, UniProt P51160); experiment: In vitro PDE assay; type: biochemical
T7 construct: purchased BPS Biosciences (San Diego, Calif.)
Procedure, shortened: as §2

PDE7A1 = biological target: T8, PDE7A1 (Homo sapiens, UniProt Q13946); experiment: In vitro PDE assay; type: biochemical
T8 construct: purchased BPS Biosciences (San Diego, Calif.)
Procedure, shortened: as §2

PDE8A1 = biological target: T9, PDE8A1 (Homo sapiens, UniProt O60658); experiment: In vitro PDE assay; type: biochemical
T9 construct: purchased BPS Biosciences (San Diego, Calif.)
Procedure, shortened: as §2

PDE9A1 = biological target: T10, PDE9A1 (Homo sapiens, UniProt O76083); experiment: In vitro PDE assay; type: biochemical
T10 construct: purchased BPS Biosciences (San Diego, Calif.)
Procedure, shortened: as §2

NIH3T3 cells = experiment: Cell viability of parental NIH3T3 cells; type: cell-based
[1] = test system: Bovine Viral Diarrhea Virus; experiment: BVDV CPE assay; type: cell-based
Experimental: Provided in FIG. 37 are the results from BVDV (Bovine Viral Diarrhea Virus, surrogate for Hepatitis C virus) CPE ([…]) testing done. The assay was repeated with […] (a PDE4B and PDE4D inhibitor). Hi913 (our prototypic PDE4 inhibitor) was tested in half-log concentrations ranging from 100 μM to 0.33 μM. As the stock solution of […] was 10 mM, this meant that the final DMSO concentrations for the highest Hi913 concentrations were 1%, 0.33%, and 0.1%. The normal final DMSO concentrations used is 0.1%, so additional DMSO controls of 1% and 0.33% were included. The Hi913 data for the highest 3 concentrations is normalized to the respective DMSO concentrations. […] The outlier effects at 100 μM are probably due to cytotoxicity at the high drug concentration.

[2] = test system: RSV (respiratory syncytial virus); experiment: RSV CPE / plaque assay in HEp-2 cells; type: cell-based
Experimental: In Table 11, the results of CPE assays following infection of human epidermoid cancer cells (HEp-2) with RSV. Even at 10,000 higher viral titers, our compound achieved complete inhibition at 10 μM. At 1 and 3 μM, the compound achieved over 98% reduction. The exemplary compound alone caused no apparent cytotoxicity at these concentrations.

PDE4D3-AKAP450 = PDE4D3-AKAP450 (Homo sapiens, UniProt Q08499); experiment: PDE4D3 localization and co-immunoprecipitation with AKAP450; type: cell-based; settings: 5 μM
Chain of PDE4D3-AKAP450 (Q08499 1-673 isoform Q08499-2): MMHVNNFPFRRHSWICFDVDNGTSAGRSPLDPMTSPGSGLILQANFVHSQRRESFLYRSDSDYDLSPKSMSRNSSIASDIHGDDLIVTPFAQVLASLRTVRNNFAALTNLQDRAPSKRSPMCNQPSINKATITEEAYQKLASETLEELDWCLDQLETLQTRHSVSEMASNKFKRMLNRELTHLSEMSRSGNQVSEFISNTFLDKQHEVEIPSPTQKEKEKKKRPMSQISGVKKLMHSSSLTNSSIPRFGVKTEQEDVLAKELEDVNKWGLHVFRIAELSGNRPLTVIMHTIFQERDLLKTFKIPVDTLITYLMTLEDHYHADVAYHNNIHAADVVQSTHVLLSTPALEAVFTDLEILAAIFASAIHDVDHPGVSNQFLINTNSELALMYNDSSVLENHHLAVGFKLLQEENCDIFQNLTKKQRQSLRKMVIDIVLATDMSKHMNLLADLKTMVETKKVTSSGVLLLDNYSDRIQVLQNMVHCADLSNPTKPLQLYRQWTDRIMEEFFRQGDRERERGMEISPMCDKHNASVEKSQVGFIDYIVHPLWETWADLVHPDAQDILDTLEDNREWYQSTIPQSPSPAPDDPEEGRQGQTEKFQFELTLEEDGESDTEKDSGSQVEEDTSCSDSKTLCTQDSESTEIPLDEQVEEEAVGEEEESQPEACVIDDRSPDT
Chain of PDE4D3-AKAP450 (Q70FJ1 whole entry partner): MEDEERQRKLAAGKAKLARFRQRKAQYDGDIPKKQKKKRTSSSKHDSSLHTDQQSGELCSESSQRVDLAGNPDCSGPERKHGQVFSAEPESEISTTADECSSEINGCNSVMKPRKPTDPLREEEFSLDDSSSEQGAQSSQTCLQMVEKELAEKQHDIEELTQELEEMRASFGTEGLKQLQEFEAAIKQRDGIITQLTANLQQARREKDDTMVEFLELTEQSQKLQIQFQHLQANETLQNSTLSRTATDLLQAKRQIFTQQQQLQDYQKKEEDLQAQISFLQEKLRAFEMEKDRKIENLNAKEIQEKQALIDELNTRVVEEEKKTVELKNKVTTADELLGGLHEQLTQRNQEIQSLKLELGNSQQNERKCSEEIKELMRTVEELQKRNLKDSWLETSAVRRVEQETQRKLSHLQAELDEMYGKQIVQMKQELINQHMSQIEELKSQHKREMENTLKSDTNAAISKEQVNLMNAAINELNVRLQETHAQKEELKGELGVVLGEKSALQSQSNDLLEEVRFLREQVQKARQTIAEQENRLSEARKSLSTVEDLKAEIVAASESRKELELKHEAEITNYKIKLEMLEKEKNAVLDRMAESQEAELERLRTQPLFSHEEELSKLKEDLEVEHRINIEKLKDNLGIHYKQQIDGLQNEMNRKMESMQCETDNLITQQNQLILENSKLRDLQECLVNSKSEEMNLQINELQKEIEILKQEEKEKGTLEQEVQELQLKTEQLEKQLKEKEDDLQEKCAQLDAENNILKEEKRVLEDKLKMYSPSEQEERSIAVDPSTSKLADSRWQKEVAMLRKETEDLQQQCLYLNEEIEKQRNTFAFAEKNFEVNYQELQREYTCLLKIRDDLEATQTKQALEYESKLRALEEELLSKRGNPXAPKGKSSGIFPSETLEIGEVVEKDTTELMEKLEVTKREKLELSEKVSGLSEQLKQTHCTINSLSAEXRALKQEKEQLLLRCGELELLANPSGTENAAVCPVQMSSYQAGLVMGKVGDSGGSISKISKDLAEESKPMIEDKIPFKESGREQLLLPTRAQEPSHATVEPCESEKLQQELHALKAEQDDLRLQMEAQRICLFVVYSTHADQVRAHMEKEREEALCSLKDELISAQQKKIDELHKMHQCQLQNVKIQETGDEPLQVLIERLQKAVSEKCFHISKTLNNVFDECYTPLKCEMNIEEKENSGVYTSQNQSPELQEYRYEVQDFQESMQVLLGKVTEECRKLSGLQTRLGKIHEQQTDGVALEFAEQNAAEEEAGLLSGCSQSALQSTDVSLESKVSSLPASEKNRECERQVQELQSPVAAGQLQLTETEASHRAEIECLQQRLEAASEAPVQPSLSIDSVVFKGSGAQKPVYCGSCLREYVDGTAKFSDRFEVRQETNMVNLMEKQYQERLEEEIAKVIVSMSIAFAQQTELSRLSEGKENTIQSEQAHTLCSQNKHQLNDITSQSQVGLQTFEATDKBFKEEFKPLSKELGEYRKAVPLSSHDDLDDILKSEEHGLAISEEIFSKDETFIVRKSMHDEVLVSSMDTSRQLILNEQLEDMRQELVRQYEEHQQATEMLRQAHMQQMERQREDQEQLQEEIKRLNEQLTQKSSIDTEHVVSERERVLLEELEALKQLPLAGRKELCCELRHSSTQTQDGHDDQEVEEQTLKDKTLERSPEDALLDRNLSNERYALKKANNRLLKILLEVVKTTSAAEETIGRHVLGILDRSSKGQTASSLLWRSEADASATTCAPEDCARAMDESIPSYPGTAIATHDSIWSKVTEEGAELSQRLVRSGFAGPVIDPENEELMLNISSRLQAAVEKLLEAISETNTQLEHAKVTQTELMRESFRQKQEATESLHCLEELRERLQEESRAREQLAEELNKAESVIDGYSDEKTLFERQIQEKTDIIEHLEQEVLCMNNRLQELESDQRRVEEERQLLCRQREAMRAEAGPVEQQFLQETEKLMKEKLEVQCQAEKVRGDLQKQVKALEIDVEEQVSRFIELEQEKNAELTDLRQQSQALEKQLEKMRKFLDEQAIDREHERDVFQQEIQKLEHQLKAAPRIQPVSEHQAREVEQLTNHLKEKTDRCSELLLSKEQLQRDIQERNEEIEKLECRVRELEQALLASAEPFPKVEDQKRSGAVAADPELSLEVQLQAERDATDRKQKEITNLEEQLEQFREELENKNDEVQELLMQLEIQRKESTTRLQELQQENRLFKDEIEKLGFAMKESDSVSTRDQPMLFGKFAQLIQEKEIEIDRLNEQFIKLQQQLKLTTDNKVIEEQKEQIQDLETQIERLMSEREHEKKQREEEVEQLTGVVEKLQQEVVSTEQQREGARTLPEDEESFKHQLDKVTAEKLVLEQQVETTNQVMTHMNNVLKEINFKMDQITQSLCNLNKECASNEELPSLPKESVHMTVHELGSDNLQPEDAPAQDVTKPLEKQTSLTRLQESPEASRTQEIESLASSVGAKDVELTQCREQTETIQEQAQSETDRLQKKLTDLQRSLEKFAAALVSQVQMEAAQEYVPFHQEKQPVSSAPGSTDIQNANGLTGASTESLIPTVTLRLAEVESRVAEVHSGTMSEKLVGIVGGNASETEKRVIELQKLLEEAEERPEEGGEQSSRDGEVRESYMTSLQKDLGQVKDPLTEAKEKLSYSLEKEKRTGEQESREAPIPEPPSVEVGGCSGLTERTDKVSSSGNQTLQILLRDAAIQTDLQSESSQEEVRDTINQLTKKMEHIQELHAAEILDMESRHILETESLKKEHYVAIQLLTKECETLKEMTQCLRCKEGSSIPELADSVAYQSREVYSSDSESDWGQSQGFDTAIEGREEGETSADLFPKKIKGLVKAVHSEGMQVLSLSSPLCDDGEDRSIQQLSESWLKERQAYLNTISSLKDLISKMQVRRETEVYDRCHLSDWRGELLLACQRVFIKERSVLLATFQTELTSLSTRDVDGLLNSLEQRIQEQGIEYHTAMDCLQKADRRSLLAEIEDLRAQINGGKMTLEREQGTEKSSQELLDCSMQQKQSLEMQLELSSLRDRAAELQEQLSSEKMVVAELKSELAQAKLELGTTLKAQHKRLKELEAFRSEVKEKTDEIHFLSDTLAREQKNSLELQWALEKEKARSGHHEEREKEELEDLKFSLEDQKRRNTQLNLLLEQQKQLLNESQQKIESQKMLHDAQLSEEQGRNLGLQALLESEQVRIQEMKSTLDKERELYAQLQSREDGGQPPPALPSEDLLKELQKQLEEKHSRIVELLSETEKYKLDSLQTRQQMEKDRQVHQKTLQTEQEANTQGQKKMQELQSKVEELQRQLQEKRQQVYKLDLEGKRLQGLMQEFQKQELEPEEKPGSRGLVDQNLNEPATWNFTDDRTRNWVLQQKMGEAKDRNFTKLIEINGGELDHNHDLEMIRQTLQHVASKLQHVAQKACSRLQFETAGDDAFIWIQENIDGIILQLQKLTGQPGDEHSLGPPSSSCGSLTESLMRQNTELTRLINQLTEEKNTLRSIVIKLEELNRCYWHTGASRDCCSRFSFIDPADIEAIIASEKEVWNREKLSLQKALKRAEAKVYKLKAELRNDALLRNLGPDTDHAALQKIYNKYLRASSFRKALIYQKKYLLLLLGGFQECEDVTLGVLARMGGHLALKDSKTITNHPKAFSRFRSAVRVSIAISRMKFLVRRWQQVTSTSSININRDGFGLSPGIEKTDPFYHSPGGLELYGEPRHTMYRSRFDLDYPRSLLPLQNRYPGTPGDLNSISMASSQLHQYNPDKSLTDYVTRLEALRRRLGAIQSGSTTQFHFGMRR

mouse cardiomyocytes [3] = experiment: Contractility of isolated mouse cardiomyocytes; type: cell-based
From the text: (§3) To observe whether the effects of eggmanone administration are cardiomyocyte specific or due to off target effects, the contractility of individual mouse cardiomyocytes and the tone of ascending/descending aorta was observed. In mouse cardiomyocytes, Egm caused a 50% increase in contractility over vehicle control (FIG. 32).

Daoy cells = experiment: Daoy cell proliferation (PH3 staining) and apoptosis (TUNEL); type: cell-based, human; settings: 10 μM, 48-hours
mouse cardiomyocytes [4] = experiment: Calcium handling in isolated mouse cardiomyocytes; type: cell-based; settings: 10 μM
From the text: as §3

RSV = RSV infection in mice (body weight, lung plaque assay); settings: 20 mg/kg IP 3× daily

## C=C(C)Cn1c(SCC(=O)c2cccs2)nc2sc3c(c2c1=O)CCCC3 [Eggmanone, 3-(2-methylallyl)-2-((2-oxo-2-(thiophen-2-yl)ethyl)thio)-5,6,7,8-tetrahydrobenzo[4,5]thieno[2,3-d]pyrimidine-4(3H)-one]
Panel of 442 kinases
  agonist or antagonist activity: did not exhibit significant agonist or antagonist activity
  significant inhibition: > 10 µM
Panel of 158 GPCRs
  agonist or antagonist activity: did not exhibit significant agonist or antagonist activity
  significant inhibition: > 10 µM
Panel of 21 phosphatases
  agonist or antagonist activity: did not exhibit significant agonist or antagonist activity
  significant inhibition: > 10 µM
PDE4 isoforms
  pIC50: 5.52 to 6.10 and 5.43 to 6.10
PDE10A2
  inhibition at 50 µM: < 10%
PDE11A4
  pIC50: < 4.30
PDE1A1
  inhibition at 50 µM: < 10%
PDE2A
  pIC50: < 4.30
PDE3A
  pIC50: < 4.30
PDE5A1
  inhibition at 50 µM: < 10%
PDE6C
  inhibition at 50 µM: < 10%
PDE7A1
  inhibition at 50 µM: < 10%
PDE8A1
  inhibition at 50 µM: < 10%
PDE9A1
  inhibition at 50 µM: < 10%
NIH3T3 cells
  Viability of NIH3T3 cells: had no effect on parental NIH3T3 cells
[1]
  Antiviral effect on BVDV: has antiviral effects
[2]
  Antiviral effect on RSV: has antiviral effects
PDE4D3-AKAP450
  PDE4D3 localization / physical association with AKAP450: does not disrupt PDE4D3 localization; also recorded: did not disrupt PDE4D3 localization or physical association with AKAP450

## C=C(C)Cn1c(SCC(=O)c2cccs2)nc2sc3c(c2c1=O)CCCC3 [EGM, Eggmanone]
Mouse cardiomyocytes [3]
  increase in contractility over vehicle control: 50%
Daoy cells
  Apoptosis (TUNEL staining): increased apoptosis
  Cell proliferation (phospho-histone H3 staining): decreased cell proliferation
Mouse cardiomyocytes [4]
  Calcium handling: not associated with alterations in calcium handling
RSV
  Normalized body weight: slightly lower than that with control
RSV; day 3
  Lung viral titer (plaque assay): significantly reduced viral titer at day 3
